Test results taken from patent US20100172836A1, “SYNTHESIS OF 18F-RADIOLABELED STYRYLPYRIDINES FROM TOSYLATE PRECURSORS AND STABLE PHARMACEUTICAL COMPOSITIONS THEREOF” (AVID RADIOPHARMACEUTICALS, INC., priority 2008, published 2010).
Converted amounts (≈) assume the structure as drawn.

How the values were obtained:
Type in all cases: physicochemical
[1] = Radiochemical purity of ^18F-AV-45 Injection with and without sodium ascorbate (HPLC with radiometric detection)
Protocol: The ^18F-AV-45 radiopharmaceutical compositions of embodiments of the invention are remarkably stable to radiolysis or chemical degradation. Sodium ascorbate is used to minimize radiolysis during the purification of ^18F-AV-45 and in the final drug product solution to increase stability and shelf life. Ethanol at 1-10% (v/v) in aqueous solution aids in the solubilization of ^18F-AV-45. […] The compositions were analyzed at end-of-synthesis (EOS) using reverse HPLC, equipped with both an ultra violet (UV) detector and radiochemical detector. The radiochemical purity of ^18F-AV-45 was monitored by HPLC with radiometric detection and the purity of ^19F-AV-45 was monitored by HPLC UV detection in the drug product by Area Percent Normalization. At EOS, the radiochemical purity of the ^18F-AV-45 composition prepared without sodium ascorbate was 84% and decomposed further such that at 2 hours the purity was 80%. […] At EOS, the purity was 96% with negligible decomposition at 2 hours post EOS (purity of 95%).

[2] = Extended stability of ^18F-AV-45 Injection formulated with sodium ascorbate at 0.5% (% RCP)
Protocol: (§1) The ^18F-AV-45 radiopharmaceutical compositions of embodiments of the invention are remarkably stable to radiolysis or chemical degradation. Sodium ascorbate is used to minimize radiolysis during the purification of ^18F-AV-45 and in the final drug product solution to increase stability and shelf life. Ethanol at 1-10% (v/v) in aqueous solution aids in the solubilization of ^18F-AV-45. […] The compositions were analyzed at end-of-synthesis (EOS) using reverse HPLC, equipped with both an ultra violet (UV) detector and radiochemical detector. The radiochemical purity of ^18F-AV-45 was monitored by HPLC with radiometric detection and the purity of ^19F-AV-45 was monitored by HPLC UV detection in the drug product by Area Percent Normalization.
As noted, the radiochemical purity of the ^18F compound is maintained for up to approximately 20 hours after production.

[3] = Stability of ^18F-AV-45 drug product in vials, upright and inverted, at ambient, 40° C. and 50° C. over 12 hours; conditions: three lots
Protocol: The stability of the drug product was evaluated on three separate manufacturing lots of ^18F-AV-45. Vials were stored upright and inverted at ambient and 40° C. temperatures, and upright at 50° C. Drug product was sampled at the specified intervals over a 12 hour testing period and evaluated for radiochemical purity and strength.

[4] = Solubility of AV-45 in the drug product composition (visual inspection, HPLC after centrifugation)
Protocol: The ^18F-AV-45 radiopharmaceutical formulation/composition was evaluated for the solubility of the non-radioactive ^19F-AV-45, which is also formed in quantities of 1-5 μg/mL during the radiosynthesis of ^18F-AV-45 due to the presence of small quantities of ^19F-fluoride from tubing, valves and other sources in the radiosynthesis system. In the absence of ethanol in the composition, particulate matter may be observed due to the low solubility of ^19F-AV-45. The addition of 10% ethanol to the radiopharmaceutical composition was, therefore, evaluated to determine if the solubility of ^19F-AV-45 was sufficient to avoid the potential of precipitate formation. […] A visible precipitate was noticeable in solutions with concentrations ≧22 μg/mL. Samples prepared at concentrations ≦20 μg/mL were evaluated by HPLC analysis following centrifugation. Samples with ≦20 μg/mL were also tested after storage for one week at ambient temperature.

[5] = UV purity of ^19F-AV-45 in ^18F-AV-45 Injection (HPLC UV detection at 350 nm, area percent)
Protocol: as §1

[6] = lot AV4520080304, manufactured without sodium ascorbate (444 MBq/mL), EOS
[7] = lot AV4520080603, manufactured with sodium ascorbate (1036 MBq/mL), EOS

CNc1ccc(/C=C/c2ccc(OCCOCCOCC[18F])nc2)cc1 [^18F-AV-45, (E)-4-(2-(6-(2-(2-(2-[^18F]fluoroethoxy)ethoxy)ethoxy)pyridin-3-yl)vinyl)-N-methylbenzenamine]
% ^18F AV-45 Purity (radiochemical) ([1]; lot AV4520080304, manufactured without sodium ascorbate (444 MBq/mL), 2-hour post EOS): 80% | % ^18F AV-45 Purity (radiochemical) ([1]; lot AV4520080304, manufactured without sodium ascorbate (444 MBq/mL), 2-hour post EOS, listed as 18F AV-45): 80% | % ^18F AV-45 Purity (radiochemical) [1, 6]: 84% | % ^18F AV-45 Purity (radiochemical) ([1]; lot AV4520080304, manufactured without sodium ascorbate (444 MBq/mL), EOS, listed as 18F AV-45): 84% | % ^18F AV-45 Purity (radiochemical) ([1]; lot AV4520080603, manufactured with sodium ascorbate (1036 MBq/mL), 2-hour post EOS): 95% | % ^18F AV-45 Purity (radiochemical) ([1]; lot AV4520080603, manufactured with sodium ascorbate (1036 MBq/mL), 2-hour post EOS, listed as 18F AV-45): 95% | % ^18F AV-45 Purity (radiochemical) [1, 7]: 96% | % ^18F AV-45 Purity (radiochemical) ([1]; lot AV4520080603, manufactured with sodium ascorbate (1036 MBq/mL), EOS, listed as 18F AV-45): 96% | time after production for which radiochemical purity is maintained ([2]; approximately 10% (v/v) ethanol in normal saline containing 0.5% (w/v) sodium ascorbate): approximately 20 hours | RCP (stability maintained) ([2]; composition comprising ethyl alcohol and sodium ascorbate, up to 20 hours post-production): greater than 90% | RCP over 12 hours ([3]; 10% (v/v) ethanol in normal saline, 0.5% (w/v) sodium ascorbate, vials upright and inverted at ambient and 40° C., upright at 50° C.): constant | drift of the drug product strength ([3]; over 12 hours, all temperatures tested (ambient, 40° C., 50° C.)): < 5%

CNc1ccc(/C=C/c2ccc(OCCOCCOCCF)nc2)cc1 [^19F-AV-45]
solubility limit ([4]; 10% (v/v) EtOH and 0.5% (w/v) sodium ascorbate in 0.9% aqueous sodium chloride, ambient temperature): 17 µg/mL (≈ 47.2 µM) | concentrations at which a visible precipitate was noticeable ([4]; drug product composition (10% EtOH, 0.5% sodium ascorbate, 0.9% NaCl)): ≥ 22000 ng/mL | change in concentration after one week of storage ([4]; samples ≦20 μg/mL, ambient temperature, HPLC): no change in concentration | UV purity by area percent at 350 nm ([5]; lot AV4520080304, manufactured without sodium ascorbate (444 MBq/mL), 2-h post EOS): 76% | UV purity by area percent at 350 nm [5, 6]: 83% | UV purity by area percent at 350 nm ([5]; lot AV4520080603, manufactured with sodium ascorbate (1036 MBq/mL), 2-h post EOS): 100% | UV purity by area percent at 350 nm [5, 7]: 100%
